From paper PMC12113730 (Microorganisms, 2025)
Like-named read-outs stand apart in the source and are kept apart here. Ends that are not written are not given here.

Columns and labels:
[1] = cationic-PAGE; for Time at which the band was no longer observed in the gel (total/complete degradation) / Band of the peptide in the gel at 8 h (in words): 50 µg mL^-1 peptide in 10-fold diluted human WSS; for Peptide remaining (band quantification): 0 h, 50 µg mL^-1 peptide in 10-fold diluted pooled human WSS, Coomassie, Image Lab relative quantity, mean ± SD, duplicate samples
Procedure: (§4) After an informed consent was obtained from all participants, stimulated whole saliva (WS) samples were collected from healthy, non-smoking adult male and female volunteers ranging from 25 to 39 years old. WS was obtained for three volunteers with good general oral health who were not taking medications that could alter their salivary flow and was performed as described previously in [29, 39]. Salivary secretion was stimulated by chewing a piece of Parafilm wax. WS was collected between 9 and 11 am, at least 2 h after the last meal. The salivary secretion was collected using a collecting tube that was kept on ice until obtaining 5.0 mL. The total volume of collected saliva was centrifuged at 4500× g (Sorvall™ ST 16 Centrifuge—Thermo Fisher Scientific, Waltham, MA, USA) at 4 °C for a period of 30 min to separate bacteria, cells and residues. The total whole saliva pellet and the total whole saliva supernatant (WSS) were separated, and the WSS was pooled and used for the degradation assay.
(§5) To assess and compare proteolysis degradation in the WS environment, all the peptides were added to WSS to observe their degradation over time by cationic-PAGE and HPLC. To investigate the degradation of each peptide, 50 µg mL^−1 of synthetic peptides 0WHst5, WP113, 8WH5, 7WH5 and 6WH5 were added to 10-fold diluted WSS. After 0, 0.5, 1.5, 4, 6, 8, 24 and 48 h of incubation, two aliquots of 100 µL were removed (one for the cationic-PAGE analysis another for HPLC analysis). After that, the aliquots were boiled for 5 min to terminate proteolytic activity. Subsequently the aliquots were diluted in a buffer containing 80% acetonitrile/19.9% H2O/0.1% trifluoroacetic acid, dried using a Vacufuge concentrator (Eppendorf, Westbury, NY, USA) and desalted using ZipTip® Pipette Tips (Merk, Rahway, NJ, USA) to concentrate and purify the samples [29].
(§6) For the cationic-PAGE, the aliquots were dried using a Vacufuge concentrator and resuspended in sample buffer containing 0.04% methyl green (Thermo Fisher Scientific, Waltham, MA, USA) in 40% sucrose. Then, 5 μg of each peptide was used as standard for the test. The stacking and separation gels were polymerized using 100 W incandescent light for 9 min each and the electrophoresis was carried out at a constant voltage of 120 V. The gels were stained with 0.1% Coomassie brilliant blue (w/v), 8% methanol (v/v) and 7% acetic acid (v/v) overnight with agitation. Destaining was carried out with 40% methanol, 10% acetic acid and 50% water (v/v). The extent of degradation was quantified by Image Lab using the relative quantity tool.

C. albicans ATCC 90028 = conditions: ATCC 90028, 48 h, 20 µmol L^-1
Procedure: (§1) For the antifungal tests, the strains C. albicans ATCC 90028, C. albicans ATCC 18804 and C. albicans ATCC 10231 were donated by the National Institute of Quality Control in Health (INCQS—Fundação Oswaldo Cruz—Fiocruz, Rio de Janeiro, Brazil). To prepare C. albicans for the tests, the lyophilized microorganism was initially reactivated in Sabouraud Dextrose Broth (Kasvi, Pinhais, Brazil) and incubated at 37 °C for 24 h. Then, the yeasts were seeded in Sabouraud Dextrose Agar and incubated for 48 h at 37 °C. Finally, the stock culture obtained was stored in a refrigerator at 4 °C for 3 months.
(§2) To prepare the standardized suspensions, some colonies of C. albicans stock cultures were seeded in Sabouraud Dextrose Broth and incubated for 24 h at 37 °C. After this time, a small aliquot of the inoculum was transferred to sterile Sabouraud Dextrose Broth to obtain a suspension with optical density (OD) between 0.10 and 0.15 (530 nm), with approximate concentration of 1 × 10^6 CFU mL^−1 [34, 35]. Finally, the suspension was diluted to obtain a concentration of 1 × 10^3 CFU mL^−1, which was used in the tests described below.
(§3) The antifungal activity tests were performed using broth microdilution. The broth microdilution was performed as described in the M27-A3 document of Clinical and Laboratory Standards Institute (CLSI) with modifications. The medium used was Sabouraud Dextrose Broth (SDB). The synthetic peptides were dissolved in a Tris·HCl 10 mM pH 7.2 buffer and added to the plate containing SDB for a final concentration in the first well of 160 µmol L^−1. The cell suspension was prepared as described under “Microorganisms and growth conditions”. This suspension was inoculated on a microdilution plate previously prepared with the peptides diluted in a concentration range from 160 to 0.31 µmol L^−1. The control drug used was fluconazole (FLU), diluted in deionized water. The plates were incubated at 37 °C for 48 h and at the end of the incubation time, the OD in each well was read in a spectrophotometer at 595 nm. The test was performed in triplicate for each of the strains.

C. albicans ATCC 18804 = conditions: ATCC 18804, 48 h
Procedure: as §1, §2, §3

in vitro = conditions: both, human, 10-fold diluted pooled whole saliva supernatant (WSS)
Procedure: as §4, §5, §6

C. albicans = conditions: some species of C. albicans; cited from earlier work
Source text: High levels of Hst5 were found in the saliva of patients with periodontal and oral fungal infections.

[2] = for HPLC peak of intact peptide after 8 h (in words): 50 µg mL^-1 peptide in 10-fold diluted human WSS, RP-HPLC C18, UV 280 nm; for Time after which the peptide was still found in the samples in whole saliva: abstract, cationic-PAGE and HPLC assays
Procedure: as §4
To assess and compare proteolysis degradation in the WS environment, all the peptides were added to WSS to observe their degradation over time by cationic-PAGE and HPLC. […] After 0, 0.5, 1.5, 4, 6, 8, 24 and 48 h of incubation, two aliquots of 100 µL were removed (one for the cationic-PAGE analysis another for HPLC analysis). After that, the aliquots were boiled for 5 min to terminate proteolytic activity. Subsequently the aliquots were diluted in a buffer containing 80% acetonitrile/19.9% H2O/0.1% trifluoroacetic acid, dried using a Vacufuge concentrator (Eppendorf, Westbury, NY, USA) and desalted using ZipTip® Pipette Tips (Merk, Rahway, NJ, USA) to concentrate and purify the samples [29].
The aliquots collected for the HPLC analysis were also dried, desalted and resuspended in 30 μL of 10 mM Tris·HCl pH 7.2 buffer solution. Then, 30 µL was analyzed by HPLC in analytical mode using a Waters Symmetry® C18 5 µm, 4.6 × 250 mm reverse phase column (Part No. WAT054275) (Waters, Milford, MA, USA). The solvents used were all chromatographic grade (purchase from Sigma-Aldrich®, St. Louis, MO, USA) and the water used was ultrapure. The chromatographic conditions were solvents A (0.045% TFA/H2O) and B (0.036% TFA/ACN), in a gradient of 5% to 95% B in 30 min, with a flow of 0.53 mL min^−1 at a detector wavelength of 280 nm, using a Waters Alliance 2695 HPLC connected to a Waters 2996 photodiode array detector (Waters, Milford, MA, USA).

[3] = system: C. albicans ATCC 10231 (fluconazole-resistant); conditions: fluconazole-resistant strain, Sabouraud Dextrose Broth, 37 °C, 48 h, OD 595 nm, triplicate
Procedure: as §1, §2, §3

| Compound | Time at which the band was no longer observed in the gel (total/complete degradation) [1] | Inhibition of C. albicans ATCC 90028 (C. albicans ATCC 90028) | Inhibition of C. albicans ATCC 18804 (C. albicans ATCC 18804; 20 µmol L^-1) | remaining at 0.5 h, 50 µg mL^-1 (in vitro) | Minimum inhibitory concentration (MIC) (C. albicans) | Peptide remaining (band quantification) [1] | HPLC peak of intact peptide after 8 h (in words) [2] | remaining at 4 h, 50 µg mL^-1 (in vitro) | Band of the peptide in the gel at 8 h (in words) [1] | Time after which the peptide was still found in the samples in whole saliva [2] | Inhibition of C. albicans ATCC 18804 (C. albicans ATCC 18804; 80 µmol L^-1) | Inhibition of C. albicans ATCC 18804 (C. albicans ATCC 18804; 160 µmol L^-1) | remaining at 6 h, 50 µg mL^-1 (in vitro) | remaining at 8 h, 50 µg mL^-1 (in vitro) | remaining at 24 h, 50 µg mL^-1 (in vitro) | remaining at 48 h, 50 µg mL^-1 (in vitro) | Inhibition of C. albicans ATCC 10231 ([3]; peptide 160 µmol L^-1) | Inhibition of growth of C. albicans ATCC 10231 ([3]; peptide 40 µmol L^-1) | Inhibition of C. albicans ATCC 18804 (C. albicans ATCC 18804; 40 µmol L^-1) |
| --- | --- | --- | --- | --- | --- | --- | --- | --- | --- | --- | --- | --- | --- | --- | --- | --- | --- | --- | --- |
| C[C@H](NC(=O)[C@H](Cc1c[nH]cn1)NC(=O)[C@H](CO)NC(=O)[C@H](CC(=O)O)NC(=O)[C@@H](N)Cc1c[nH]c2ccccc12)C(=O)N[C@@H](CCCCN)C(=O)N[C@@H](CCCNC(=N)N)C(=O)N[C@@H](Cc1c[nH]cn1)C(=O)N[C@@H](Cc1c[nH]cn1)C(=O)NCC(=O)N[C@@H](Cc1ccc(O)cc1)C(=O)N[C@@H](CCCCN)C(=O)N[C@@H](CCCNC(=N)N)C(=O)N[C@@H](CCCCN)C(=O)N[C@@H](Cc1ccccc1)C(=O)N[C@@H](Cc1c[nH]cn1)C(=O)N[C@@H](CCC(=O)O)C(=O)N[C@@H](CCCCN)C(=O)N[C@@H](Cc1c[nH]cn1)C(=O)N[C@@H](Cc1c[nH]cn1)C(=O)N[C@@H](CO)C(=O)N[C@@H](Cc1c[nH]cn1)C(=O)N[C@@H](CCCNC(=N)N)C(=O)NCC(=O)N[C@@H](Cc1ccc(O)cc1)C(=O)O [Peptide 0WHst5] | ≤ 4 h | 75% | greater than 80% | 91 ± 17% |  |  |  |  |  |  |  |  |  |  |  |  |  |  |  |
| Histatin 5 [Hst5] |  |  |  |  | 8 to 16 mg/L |  |  |  |  |  |  |  |  |  |  |  |  |  |  |
| WAKRHHGYKRKFH [WP113] | > 4 h | 76% |  | 89.5 ± 7.3% |  | 100.0 ± 0.0% | disappeared | 7.23 ± 8.17% |  |  |  |  |  |  |  |  |  |  |  |
| WKRHHGY [Peptide 6WH5] |  |  |  | 98.8 ± 1.1% |  | 100.0 ± 0.0% | still detectable | 79.3 ± 9.8% | possible to visualize the band | ≥ 8 h | above 70% | greater than 80% | 52.4 ± 7% | 30.6 ± 4% | 16.5 ± 5.9% | 8.3 ± 6.2% |  |  |  |
| WKRHHGYK [Peptide 7WH5] |  |  |  | 100 ± 4.5% |  | 100.0 ± 0.0% | still detectable | 86.2 ± 3.1% | possible to visualize the band | ≥ 8 h | greater than 80% |  | 55.9 ± 5.8% | 49.6 ± 2.4% | 19.1 ± 7.5% | 6.9 ± 1% | 90.9% |  |  |
| WKRHHGYKR [Peptide 8WH5] |  |  |  | 99.9 ± 8% |  | 100.0 ± 0.0% | still detectable | 80.3 ± 13% | possible to visualize the band | ≥ 8 h |  |  | 62 ± 8.4% | 44.2 ± 0.9% | 8.6 ± 4.4% | 3.5 ± 0.8% |  | 85% | greater than 80% |
